# What was measured:
# Assay in all cases: Histone peptide microarray
# Type in all cases: binding, human
# Conditions in all cases: arrays performed twice
# ING1 = test system: ING1
# Outline: (§1)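 GST-PHD reader, 0.5 μM, probed on 293-peptide histone array (single/combinatorial PTMs); optimized array protocol; signal = mean ± SD, n = 4.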
# PHF8 = test system: PHF8
# Outline: as §1
# TRIM66 (PB) = test system: TRIM66 (PB)
# Outline: as §1
# BAZ2B = test system: BAZ2B
# Outline: as §1
# TAF3 = test system: TAF3
# Outline: as §1
# DPF2 (PPC2W2) = test system: DPF2 (PPC2W2)
# Outline: as §1
# KDM4C (TTP) = test system: KDM4C (TTP)
# Outline: as §1
# CHD5 (PPCC) = test system: CHD5 (PPCC)
# Outline: as §1
# CHD4 (PPCC) = test system: CHD4 (PPCC)
# Outline: as §1
# PHF13 = test system: PHF13
# Outline: as §1
# RAG2 = test system: RAG2
# Outline: as §1
# PHF2 = test system: PHF2
# Outline: as §1
# KDM5B (3) = test system: KDM5B (3)
# Outline: as §1
# MLL5 = test system: MLL5
# Outline: as §1
# ING4 = test system: ING4
# Outline: as §1
# PHF23 = test system: PHF23
# Outline: as §1
# ING5 = test system: ING5
# Outline: as §1
# KDM5A (3) = test system: KDM5A (3)
# Outline: as §1
# DIDO1 = test system: DIDO1
# Outline: as §1
# ING3 = test system: ING3
# Outline: as §1
# PHF21A = test system: PHF21A
# Outline: as §1
# SP140L = test system: SP140L
# Outline: as §1
# BPTF (PB) = test system: BPTF (PB)
# Outline: as §1
# ING2 = test system: ING2
# Outline: as §1
# KDM7A = test system: KDM7A
# Outline: as §1
# KDM5A (1) = test system: KDM5A (1)
# Outline: as §1
# KDM5B (1) = test system: KDM5B (1)
# Outline: as §1
# PHRF1 (RP) = test system: PHRF1 (RP)
# Outline: as §1
# CHD5 (PCC) = test system: CHD5 (PCC)
# Outline: as §1
# MORC3 (CW) = test system: MORC3 (CW)
# Outline: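 Readout is array binding signal, reported as the mean and standard deviation over four replicates. Each purified GST-fused PHD domain was incubated at 0.5 μM with a library of 293 modified histone peptides.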
# AIRE (PP) = test system: AIRE (PP)
# Outline: as §1
substance,measurement,setting,value
H3 (21-44): H3 21-44,Array Heatmap value (peptide array binding signal),"ING1; ING1, GST-tagged, n of 4",0.59
same,Array Heatmap value (peptide array binding signal),"PHF8; PHF8, GST-tagged, n of 4",0.4334
same,Array Heatmap value (peptide array binding signal),"TRIM66 (PB); TRIM66 (PB), GST-tagged, n of 4",0.5647
same,Array Heatmap value (peptide array binding signal),"BAZ2B; BAZ2B, GST-tagged, n of 4",0.4957
same,Array Heatmap value (peptide array binding signal),"TAF3; TAF3, GST-tagged, n of 4",0.2755
same,Array Heatmap value (peptide array binding signal),"DPF2 (PPC2W2); DPF2 (PPC2W2), GST-tagged, n of 4",0.7579
same,Array Heatmap value (peptide array binding signal),"KDM4C (TTP); KDM4C (TTP), GST-tagged, n of 4",0.5571
same,Array Heatmap value (peptide array binding signal),"CHD5 (PPCC); CHD5 (PPCC), GST-tagged, n of 4",0.5941
same,Array Heatmap value (peptide array binding signal),"CHD4 (PPCC); CHD4 (PPCC), GST-tagged, n of 4",0.6413
same,Array Heatmap value (peptide array binding signal),"PHF13; PHF13, GST-tagged, n of 4",0.6442
same,Array Heatmap value (peptide array binding signal),"RAG2; RAG2, GST-tagged, n of 4",0.2504
same,Array Heatmap value (peptide array binding signal),"PHF2; PHF2, GST-tagged, n of 4",0.5123
same,Array Heatmap value (peptide array binding signal),"KDM5B (3); KDM5B (3), GST-tagged, n of 4",0.4825
same,Array Heatmap value (peptide array binding signal),"MLL5; MLL5, GST-tagged, n of 4",0.6112
same,Array Heatmap value (peptide array binding signal),"ING4; ING4, GST-tagged, n of 4",0.5057
same,Array Heatmap value (peptide array binding signal),"PHF23; PHF23, GST-tagged, n of 4",0.5869
same,Array Heatmap value (peptide array binding signal),"ING5; ING5, GST-tagged, n of 4",0.397
same,Array Heatmap value (peptide array binding signal),"KDM5A (3); KDM5A (3), GST-tagged, n of 4",0.4938
same,Array Heatmap value (peptide array binding signal),"DIDO1; DIDO1, GST-tagged, n of 4",0.7788
same,Array Heatmap value (peptide array binding signal),"ING3; ING3, GST-tagged, n of 4",0.4903
same,Array Heatmap value (peptide array binding signal),"PHF21A; PHF21A, GST-tagged, n of 4",0.4741
same,Array Heatmap value (peptide array binding signal),"SP140L; SP140L, GST-tagged, n of 4",0.3812
same,Array Heatmap value (peptide array binding signal),"BPTF (PB); BPTF (PB), GST-tagged, n of 4",0.3717
same,Array Heatmap value (peptide array binding signal),"ING2; ING2, GST-tagged, n of 4",0.6399
same,Array Heatmap value (peptide array binding signal),"KDM7A; KDM7A, GST-tagged, n of 4",0.5232
same,Array Heatmap value (peptide array binding signal),"KDM5A (1); KDM5A (1), GST-tagged, n of 4",0.5113
same,Array Heatmap value (peptide array binding signal),"KDM5B (1); KDM5B (1), GST-tagged, n of 4",0.6648
same,Array Heatmap value (peptide array binding signal),"PHRF1 (RP); PHRF1 (RP), GST-tagged, n of 4",0.4628
same,Array Heatmap value (peptide array binding signal),"CHD5 (PCC); CHD5 (PCC), GST-tagged, n of 4",0.7773
same,Array Heatmap value (peptide array binding signal),"MORC3 (CW); MORC3 (CW), GST-tagged, n of 4",0.3763
same,Array Heatmap value (peptide array binding signal),"AIRE (PP); AIRE (PP), GST-tagged, n of 4",0.5101
"H3 (52-61): H3 52-61 (RRYQKSTELL; UniProt P68431 53-62, looked up, fragment)","Array Heatmap signal, ING1","ING1; sheet ""Array Heatmap"", GST-tagged ING1, total replicate number n = 4",0.6486
same,"Array Heatmap signal, PHF8","PHF8; sheet ""Array Heatmap"", GST-tagged PHF8, total replicate number n = 4",0.404
same,"Array Heatmap signal, TRIM66 (PB)","TRIM66 (PB); sheet ""Array Heatmap"", GST-tagged TRIM66 (PB), total replicate number n = 4",0.6688
same,"Array Heatmap signal, BAZ2B","BAZ2B; sheet ""Array Heatmap"", GST-tagged BAZ2B, total replicate number n = 4",0.5444
same,"Array Heatmap signal, TAF3","TAF3; sheet ""Array Heatmap"", GST-tagged TAF3, total replicate number n = 4",0.3129
same,"Array Heatmap signal, DPF2 (PPC2W2)","DPF2 (PPC2W2); sheet ""Array Heatmap"", GST-tagged DPF2 (PPC2W2), total replicate number n = 4",0.817
same,"Array Heatmap signal, KDM4C (TTP)","KDM4C (TTP); sheet ""Array Heatmap"", GST-tagged KDM4C (TTP), total replicate number n = 4",0.5685
same,"Array Heatmap signal, CHD5 (PPCC)","CHD5 (PPCC); sheet ""Array Heatmap"", GST-tagged CHD5 (PPCC), total replicate number n = 4",0.6595
same,"Array Heatmap signal, CHD4 (PPCC)","CHD4 (PPCC); sheet ""Array Heatmap"", GST-tagged CHD4 (PPCC), total replicate number n = 4",0.678
same,"Array Heatmap signal, PHF13","PHF13; sheet ""Array Heatmap"", GST-tagged PHF13, total replicate number n = 4",0.7152
same,"Array Heatmap signal, RAG2","RAG2; sheet ""Array Heatmap"", GST-tagged RAG2, total replicate number n = 4",0.2955
same,"Array Heatmap signal, PHF2","PHF2; sheet ""Array Heatmap"", GST-tagged PHF2, total replicate number n = 4",0.6756
same,"Array Heatmap signal, KDM5B (3)","KDM5B (3); sheet ""Array Heatmap"", GST-tagged KDM5B (3), total replicate number n = 4",0.517
same,"Array Heatmap signal, MLL5","MLL5; sheet ""Array Heatmap"", GST-tagged MLL5, total replicate number n = 4",0.6079
same,"Array Heatmap signal, ING4","ING4; sheet ""Array Heatmap"", GST-tagged ING4, total replicate number n = 4",0.5513
same,"Array Heatmap signal, PHF23","PHF23; sheet ""Array Heatmap"", GST-tagged PHF23, total replicate number n = 4",0.6261
same,"Array Heatmap signal, ING5","ING5; sheet ""Array Heatmap"", GST-tagged ING5, total replicate number n = 4",0.4351
same,"Array Heatmap signal, KDM5A (3)","KDM5A (3); sheet ""Array Heatmap"", GST-tagged KDM5A (3), total replicate number n = 4",0.5465
same,"Array Heatmap signal, DIDO1","DIDO1; sheet ""Array Heatmap"", GST-tagged DIDO1, total replicate number n = 4",0.9
same,"Array Heatmap signal, ING3","ING3; sheet ""Array Heatmap"", GST-tagged ING3, total replicate number n = 4",0.5651
same,"Array Heatmap signal, PHF21A","PHF21A; sheet ""Array Heatmap"", GST-tagged PHF21A, total replicate number n = 4",0.5243
same,"Array Heatmap signal, SP140L","SP140L; sheet ""Array Heatmap"", GST-tagged SP140L, total replicate number n = 4",0.4012
same,"Array Heatmap signal, BPTF (PB)","BPTF (PB); sheet ""Array Heatmap"", GST-tagged BPTF (PB), total replicate number n = 4",0.412
same,"Array Heatmap signal, ING2","ING2; sheet ""Array Heatmap"", GST-tagged ING2, total replicate number n = 4",0.6326
same,"Array Heatmap signal, KDM7A","KDM7A; sheet ""Array Heatmap"", GST-tagged KDM7A, total replicate number n = 4",0.4034
same,"Array Heatmap signal, KDM5A (1)","KDM5A (1); sheet ""Array Heatmap"", GST-tagged KDM5A (1), total replicate number n = 4",0.5239
same,"Array Heatmap signal, KDM5B (1)","KDM5B (1); sheet ""Array Heatmap"", GST-tagged KDM5B (1), total replicate number n = 4",0.6945
same,"Array Heatmap signal, PHRF1 (RP)","PHRF1 (RP); sheet ""Array Heatmap"", GST-tagged PHRF1 (RP), total replicate number n = 4",0.5632
same,"Array Heatmap signal, CHD5 (PCC)","CHD5 (PCC); sheet ""Array Heatmap"", GST-tagged CHD5 (PCC), total replicate number n = 4",0.8381
same,"Array Heatmap signal, MORC3 (CW)","MORC3 (CW); sheet ""Array Heatmap"", GST-tagged MORC3 (CW), total replicate number n = 4",0.4348
same,"Array Heatmap signal, AIRE (PP)","AIRE (PP); sheet ""Array Heatmap"", GST-tagged AIRE (PP), total replicate number n = 4",0.514

# — article PMC6979384, “Characterization of the plant homeodomain (PHD) reader family for their histone tail interactions” (Epigenetics & Chromatin, 2020)
